According to patent US20080031903A1, “METHOD OF TREATING OCULAR INFECTIONS” (priority 2006, published 2008):
Several values for one entry are separate records, joined by “and”; a condition that tells them apart may be missing. Equal values may be shown once.

How the values were obtained:
Ad5 = assay: Ad5/NZW rabbit ocular model, combined analysis of Examples 3 and 5; type: in vivo; conditions: n=20 eyes per group, FIG. 12
Ad5 McEwen = assay: Ad5/NZW rabbit ocular model, Example 3 (Ad-R1); type: in vivo
Procedure: The purpose of this study is to determine the antiviral efficacy of a 100 mg/ml solution of human Intra Venous Immune Globulin (IG) in the Ad5/NZW rabbit ocular model.
Fifteen NZW female rabbits 2-3 lbs were received from Myrtle's Rabbitry, Thompson Station, Tenn. Fifteen rabbits were inoculated in both eyes following general anesthesia with ketamine & xylazine, topical anesthesia with proparacaine, and corneal scarification (12 cross-hatched strokes of a #25 needle) with 50 μl of 3.0×10^7 pfu/ml (1.5×10^6 pfu/eye or 1.5×10^8 vp/eye) of Ad5 McEwen (Stock P3, Feb. 25, 05, 5.3×10^8 pfu/ml). Eyes were closed and gently rubbed for 5 seconds to ensure contact of the virus on all ocular surfaces.
Eyes were cultured for virus after at least 3 hours (Day 0) after infection. Following topical anesthesia with proparacaine, a single cotton-tipped swab was placed into the lower fornix of each eye, rolled over the cornea into the upper fornix to recover adenovirus from the tear film and corneal and conjunctival surfaces. The swabs from each eye were placed individually into tubes containing 1 ml of outgrowth media and were frozen at −70° C. pending plaque assay. On Day 1, rabbits were divided into 3 treatment groups of 5 rabbits each. Two masked solutions were received. One solution contained 100 mg/ml of IG (Gammagard S/D) and one solution contained pharmaceutical grade saline for use as the negative control. The positive antiviral control, 0.5% cidofovir was not masked because of the differences in treatment regimen. The solutions were stored at 4° C. until and during use.
Drops were administered with at least a 1 hour interval between drops. All eyes from all groups were cultured for virus on days 1, 3, 4, 5, 7, 9, 11, and 14 at least one hour after the final doses of the treatments described above. At various times during the course of the experiment, Ad5 titers were determined on A549 cell monolayers using a standard plaque assay. The ocular cultures to be titered were thawed, diluted (1:10) and inoculated onto A549 monolayers. The virus was adsorbed for 3 hours. Following adsorption, 1 ml of media plus 0.5% methylcellulose was added to each well, and the plates were incubated at 37° C. in a 5% CO2-water vapor atmosphere. After 7 days incubation, the cells were stained with 0.5% gentian violet, and the number of plaques were counted under a dissecting microscope (25×). The viral titers were then calculated, and expressed as plaque-forming units per milliliter (pfu/ml).
Analysis of Results: Data were analyzed statistically using True Epistat and/or Minitab statistical software. Outcome measures included: Ad5-Positive Cultures per Total (Overall [Days 1-14]; Early Phase of Infection [Days 1-5]; Late Phase of Infection [Days 7-14]), Daily Viral Titers, Mean Viral Titer (Early Phase of Infection [Days 1-5]; Late Phase of Infection [Days 7-14]), and Duration of Shedding. Significance was established at the p≦0.05 confidence level.
Duration of viral shedding is shown in Table 8 and was statistically analyzed. The duration of viral shedding in IG treated animals was 5.4 days (standard deviation of 0.84 days). In the Cidofovir treated animals, the duration of viral shedding was 5.0 (SD=1.25 days) while it was longer in the normal saline treated group: 7.2 days (SD=1.14 days). The significant finding is represented graphically in FIG. 8. In this analysis, IG was similar to Cidofovir in reducing the duration of viral shedding.

[1] = Days 1-5, Early Phase of Infection
[2] = Days 7-14, Late Phase of Infection

`Nc1ccn(C[C@@H](CO)OCP(=O)(O)O)c(=O)n1` [0.5% Cidofovir, Cidofovir] was tested, and the “Daily Ad5 positive cultures per total, comparison (words)” value (Ad5) was “significantly fewer Ad5 positive cultures per total compared with the Saline control on Days 7 and 9”, the “Daily Ad5 positive cultures per total, comparison (words)” value (Ad5; listed as cidofovir) was “significant decreases in the number of Ad5 positive cultures per total on Days 7 and 9 compared with the saline treated eyes” and the “Daily Ad5 ocular titer, Median” value (Ad5 McEwen; D0) was 2350 pfu/ml. For the same molecule, the “Daily Ad5 ocular titer, TrMean” value (Ad5 McEwen; D0) was 2988 pfu/ml, the “Daily Ad5 ocular titer, Mean” value (Ad5 McEwen; D0, N 10 eyes) was 3214 pfu/ml and the “Ad5 ocular viral titer, individual eye” value (Ad5 McEwen; D 0, after infection, before treatment) was 2450 pfu/ml and 1950 pfu/ml and 4250 pfu/ml and 1100 pfu/ml and 2250 pfu/ml and 6650 pfu/ml and 7200 pfu/ml and 3100 pfu/ml and 2150 pfu/ml and 1040 pfu/ml. The “Ad5 ocular viral titer, individual eye” value (Ad5 McEwen; D 1) was 450 pfu/ml (2×) and 475 pfu/ml and 1000 pfu/ml and 5 pfu/ml and 550 pfu/ml (2×) and 1550 pfu/ml and 1800 pfu/ml and 330 pfu/ml, the “Daily Ad5 ocular titer, Mean” value (Ad5 McEwen; D 1) was 716 pfu/ml and the “Daily Ad5 ocular titer, Median” value (Ad5 McEwen; D 1) was 512 pfu/ml. For the same molecule, the “Daily Ad5 ocular titer, TrMean” value (Ad5 McEwen; D 1) was 669 pfu/ml, the “Ad5 ocular viral titer, individual eye” value (Ad5 McEwen; D 3) was 4250 pfu/ml and 3800 pfu/ml and 2700 pfu/ml and 130 pfu/ml and 9350 pfu/ml and 8200 pfu/ml and 9300 pfu/ml and 100 pfu/ml and 350 pfu/ml and 210 pfu/ml and the “Daily Ad5 ocular titer, Mean” value (Ad5 McEwen; D 3) was 3839 pfu/ml. For the same molecule, the “Daily Ad5 ocular titer, Median” value (Ad5 McEwen; D 3) was 3250 pfu/ml, the “Daily Ad5 ocular titer, TrMean” value (Ad5 McEwen; D 3) was 3617 pfu/ml and the “Ad5 ocular viral titer, individual eye” value (Ad5 McEwen; D 4) was 650 pfu/ml and 400 pfu/ml and 6700 pfu/ml and 1150 pfu/ml and 4700 pfu/ml and 2350 pfu/ml and 1800 pfu/ml and 25 pfu/ml and 0 pfu/ml and 80 pfu/ml. For the same molecule, the “Daily Ad5 ocular titer, Mean” value (Ad5 McEwen; D 4) was 1785 pfu/ml, the “Daily Ad5 ocular titer, Median” value (Ad5 McEwen; D 4) was 900 pfu/ml and the “Daily Ad5 ocular titer, TrMean” value (Ad5 McEwen; D 4) was 1394 pfu/ml. For the same molecule, the “Ad5 ocular viral titer, individual eye” value (Ad5 McEwen; D 5) was 550 pfu/ml and 10 pfu/ml and 1550 pfu/ml and 0 pfu/ml (3×) and 400 pfu/ml and 1400 pfu/ml and 1100 pfu/ml and 5 pfu/ml, the “Daily Ad5 ocular titer, Mean” value (Ad5 McEwen; D 5) was 501 pfu/ml and the “Daily Ad5 ocular titer, Median” value (Ad5 McEwen; D 5) was 205 pfu/ml. The “Daily Ad5 ocular titer, TrMean” value (Ad5 McEwen; D 5) was 433 pfu/ml, the “Ad5 ocular viral titer, individual eye” value (Ad5 McEwen; D 7) was 0 pfu/ml (8×) and 5 pfu/ml and 15 pfu/ml and the “Daily Ad5 ocular titer, Mean” value (Ad5 McEwen; D 7) was 2.00 pfu/ml. The “Daily Ad5 ocular titer, Median” value (Ad5 McEwen; D 7) was 0.00 pfu/ml, the “Daily Ad5 ocular titer, TrMean” value (Ad5 McEwen; D 7) was 0.62 pfu/ml and the “Ad5 ocular viral titer, individual eye” value (Ad5 McEwen; D 9) was 0 pfu/ml. For the same molecule, the “Daily Ad5 ocular titer, Mean” value (Ad5 McEwen; D 9) was 0.00000 pfu/ml, the “Daily Ad5 ocular titer, Median” value (Ad5 McEwen; D 9) was 0.00000 pfu/ml and the “Daily Ad5 ocular titer, TrMean” value (Ad5 McEwen; D 9) was 0.00000 pfu/ml. For the same molecule, the “Ad5 ocular viral titer, individual eye” value (Ad5 McEwen; D 11) was 0 pfu/ml, the “Daily Ad5 ocular titer, Mean” value (Ad5 McEwen; D 11) was 0.00000 pfu/ml and the “Daily Ad5 ocular titer, Median” value (Ad5 McEwen; D 11) was 0.00000 pfu/ml. For the same molecule, the “Daily Ad5 ocular titer, TrMean” value (Ad5 McEwen; D 11) was 0.00000 pfu/ml, the “Ad5 ocular viral titer, individual eye” value (Ad5 McEwen; D 14) was 0 pfu/ml and the “Daily Ad5 ocular titer, Mean” value (Ad5 McEwen; D 14) was 0.00000 pfu/ml. For the same molecule, the “Daily Ad5 ocular titer, Median” value (Ad5 McEwen; D 14) was 0.00000 pfu/ml, the “Daily Ad5 ocular titer, TrMean” value (Ad5 McEwen; D 14) was 0.00000 pfu/ml and the “Positive Cultures per Total” value (Ad5 McEwen; Day 0, before treatment) was 10/10. For the same molecule, the “Positive Cultures per Total, percent” value (Ad5 McEwen; Day 0, before treatment) was 100%, the “Positive Cultures per Total” value (Ad5 McEwen; Day 1) was 10/10 and the “Positive Cultures per Total, percent” value (Ad5 McEwen; Day 1) was 100%. The “Positive Cultures per Total” value (Ad5 McEwen; Day 3) was 10/10, the “Positive Cultures per Total, percent” value (Ad5 McEwen; Day 3) was 100% and the “Positive Cultures per Total” value (Ad5 McEwen; Day 4) was 9/10. For the same molecule, the “Positive Cultures per Total, percent” value (Ad5 McEwen; Day 4) was 90%, the “Positive Cultures per Total” value (Ad5 McEwen; Day 5) was 7/10 and the “Positive Cultures per Total, percent” value (Ad5 McEwen; Day 5) was 70%. For the same molecule, the “Positive Cultures per Total” value (Ad5 McEwen; Day 7) was 2/10, the “Positive Cultures per Total, percent” value (Ad5 McEwen; Day 7) was 20% and the “Positive Cultures per Total” value (Ad5 McEwen; Day 9) was 0/10. The “Positive Cultures per Total, percent” value (Ad5 McEwen; Day 9) was 0%, the “Positive Cultures per Total” value (Ad5 McEwen; Day 11) was 0/10 and the “Positive Cultures per Total, percent” value (Ad5 McEwen; Day 11) was 0%. The “Positive Cultures per Total” value (Ad5 McEwen; Day 14) was 0/10, the “Positive Cultures per Total, percent” value (Ad5 McEwen; Day 14) was 0% and the “Positive Cultures per Total, Total” value (Ad5 McEwen; [1]) was 36/40. The “Positive Cultures per Total, Total (%)” value (Ad5 McEwen; [1]) was 90%, the “Positive Cultures per Total, Total” value (Ad5 McEwen; Days 1-14) was 38/80 and the “Positive Cultures per Total, Total (%)” value (Ad5 McEwen; Days 1-14) was 47.5%. The “Positive Cultures per Total, Total (%)” value (Ad5 McEwen; Days 1-14, listed as Cidofovir) was 47.5%, the “Positive Cultures per Total, Total” value (Ad5 McEwen; [2]) was 2/40 and the “Positive Cultures per Total, Total (%)” value (Ad5 McEwen; [2]) was 5%. For the same molecule, the “Positive Cultures per Total, Total (%)” value (Ad5 McEwen; Days 7-14, Late Phase of Infection, listed as Cidofovir) was 5%, the “Mean Combined Ocular Titers Days 7-14, comparison” value (Ad5 McEwen; Late Phase) was “significantly lower Mean Combined Ocular Titers Days 7-14 compared with NPR” and the “Positive Cultures per Total Days 7-14, comparison” value (Ad5 McEwen; Late Phase) was “significantly fewer Positive Cultures per Total Days 7-14 compared with NPR”. The “Antiviral efficacy, conclusion” value (Ad5 McEwen; compared to Saline control) was “demonstrated its proven antiviral efficacy”, the “Mean Daily Ocular Titers, statistical comparison” value (Ad5 McEwen; days as stated) was “significantly lower titers on Days 1 and 7 compared with NPR” and the “Duration of Shedding, individual eye” value (Ad5 McEwen; final day with positive Ad5 culture, listed as CDV) was 5 days (5×) and 4 days (2×) and 7 days (2×) and 3 days. The “Duration of viral shedding, group mean” value (Ad5 McEwen; mean of 10 eyes) was 5.0 days and the “Mean Duration of Shedding, comparison” value (Ad5 McEwen; rabbit, in vivo) was “significantly shorter durations of shedding compared with the NPR”.
